Reference: US9663528B2, “Substituted 1,2,3,4,6,8,12,12a-octahydro-1,4-methanodipyrido[1,2-a:1',2'-d]pyrazines and methods for treating viral infections” (priority 2012, dated 2017)
pIC50: −log10 of the molar value. Like-named read-outs stand apart in the source and are kept apart here.

Tests used:
[1] = in vitro; settings: human
[2] = target: PXR (Homo sapiens (Human), UniProt O75469); assay: Human PXR activation assay (luciferase reporter gene assay, DPX2 cells); assay type: cell-based; settings: human
PXR, sequence (O75469 whole entry): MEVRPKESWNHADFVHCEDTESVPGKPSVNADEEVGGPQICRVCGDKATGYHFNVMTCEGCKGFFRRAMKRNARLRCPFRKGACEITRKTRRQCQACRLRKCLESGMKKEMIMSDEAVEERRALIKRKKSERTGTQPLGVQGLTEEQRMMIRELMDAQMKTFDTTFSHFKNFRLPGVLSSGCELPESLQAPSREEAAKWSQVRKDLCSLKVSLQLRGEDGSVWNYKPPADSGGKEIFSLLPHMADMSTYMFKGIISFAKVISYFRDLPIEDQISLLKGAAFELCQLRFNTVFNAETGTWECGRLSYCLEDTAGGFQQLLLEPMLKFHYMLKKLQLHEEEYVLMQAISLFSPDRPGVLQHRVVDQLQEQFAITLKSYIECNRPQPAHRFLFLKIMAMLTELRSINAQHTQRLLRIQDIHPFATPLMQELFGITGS
Method: A stably transformed tumor cell line (DPX2) was plated on 96-well microtiter plates. DPX2 cells harbor the human PXR gene (NR112) and a luciferase reporter gene linked to two promoters identified in the human CYP3A4 gene, namely XREM and PXRE. […] The number of viable cells was determined and the reporter gene activity was assessed. Positive control: […]

[3] = target: OCT2 (Homo sapiens (Human), UniProt O15244); assay: OCT2 inhibition assay (14C-TEA uptake, OCT2-transfected MDCKII cells); assay type: cell-based
OCT2, sequence (O15244 whole entry): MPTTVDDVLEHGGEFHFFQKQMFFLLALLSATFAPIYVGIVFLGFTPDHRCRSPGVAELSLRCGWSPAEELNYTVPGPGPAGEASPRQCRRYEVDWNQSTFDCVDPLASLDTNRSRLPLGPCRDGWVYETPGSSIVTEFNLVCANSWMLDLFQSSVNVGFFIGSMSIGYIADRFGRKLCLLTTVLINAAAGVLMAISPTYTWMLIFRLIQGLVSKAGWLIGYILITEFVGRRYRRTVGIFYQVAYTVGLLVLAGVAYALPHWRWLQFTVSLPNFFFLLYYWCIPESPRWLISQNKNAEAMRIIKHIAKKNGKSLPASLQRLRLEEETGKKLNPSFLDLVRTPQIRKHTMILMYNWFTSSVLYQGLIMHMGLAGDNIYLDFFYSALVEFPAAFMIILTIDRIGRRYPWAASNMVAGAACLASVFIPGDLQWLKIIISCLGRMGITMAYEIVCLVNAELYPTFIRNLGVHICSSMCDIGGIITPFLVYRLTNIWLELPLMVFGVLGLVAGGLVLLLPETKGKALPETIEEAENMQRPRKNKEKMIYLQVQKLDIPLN
Method: On assay day, cells were trypsinized and resuspended in Krebs-Henseleit Buffer (KHB), pH 7.4 at […]. Cells were preincubated for 15 min in assay plate before addition of test compound or substrate. Test compounds were serially diluted in DMSO and then spiked (2 μL) into in 0.4 mL KHB buffer containing wild-type or OCT2-transfected cells and incubated for 10 minutes. Assay was initiated with the addition of 0.1 mL of 100 μM ^14C-TEA in KHB buffer (20 μM final concentration after mixing). The concentration of TEA is based on the Km. After 10 minutes of incubation, the assay mixture was quenched with addition of 0.5 mL of ice-cold 1×PBS buffer. Samples were then centrifuged at 1000 rpm for 5 min and supernatants were removed. Wash steps were repeated four times with ice-cold PBS. Finally, the cell pellets were lysed with 0.2N NaOH and let sit at room temperature for at least 30 min to ensure complete lysis. Samples were then counted on liquid scintillation counter and dpm counts were used to perform the following calculations.

[4] = Pharmacokinetic analysis following intravenous administration to beagle dogs; assay type: in vivo; settings: male, dog, 0.5 mg/kg; for Vd: read-out: Vss
Method: (§1) Pharmacokinetic analysis was performed on various test compounds following intravenous or oral administration to beagle dogs.
(§2) For pharmacokinetic analysis of intravenously administered compounds, the test compounds were formulated in 5% Ethanol, 55% PEG 300, and 40% water at 0.1 mg/mL for IV infusion. For pharmacokinetic analysis of orally administered compounds, the test compounds were formulated as an aqueous suspension in 0.1% Tween 20, 0.5% HPMC LV 100 in Di Water at 1 mg/kg.
(§3) Each dosing group consisted of 3 male, non-naïve purebred beagle dogs. At dosing, the animals weighed between 10 to 13 kg. The animals were fasted overnight prior to dose administration and up to 4 hr after dosing. For studies of intravenous administration, the test article was administered to the animals by intravenous infusion over 30 min. The rate of infusion was adjusted according to the body weight of each animal to deliver a dose of 0.5 mg/kg. For studies of oral administration, the test article was administered according to the body weight of each animal to deliver a dose of 1 mg/kg.
For pharmacokinetic analysis of intravenously administered compounds, serial venous blood samples (approximately 1 mL each) were taken from each animal at 0, 0.250, 0.483, 0.583, 0.750, 1.00, 1.50, 2.00, 4.00, 8.00, 12.0, and 24.0 hours after dosing. The blood samples were collected into Vacutainer™ tubes containing EDTA-K2 as the anti-coagulant and were immediately placed on wet ice pending centrifugation for plasma. An LC/MS/MS method was used to measure the concentration of the test compound in plasma. An aliquot of 100 μL of each plasma sample was added to a clean 96 well plate, and 400 μL of cold acetonitrile/internal standard solution (ACN)/(ISTD) was added. After protein precipitation, an aliquot of 110 μL of the supernatant was transferred to a clean 96-well plate and diluted with 300 μL of water. An aliquot of 25 μL of the above solution was injected into a TSQ Quantum Ultra LC/MS/MS system utilizing a Hypersil Gold C18 HPLC column (50×3.0 mm, 5 μm; Thermo-Hypersil Part #25105-053030). An Agilent 1200 series binary pump (P/N G1312A Bin Pump) was used for elution and separation, and an HTS Pal autosampler (LEAP Technologies, Carrboro, N.C.) was used for sample injection. A TSQ Quantum Ultra triple quadrupole mass spectrometer was utilized in selective reaction monitoring mode (Thermo Finnigan, San Jose, Calif.). Liquid chromatography was performed using two mobile phases: mobile phase A contained 1% acetonitrile in 2.5 mM ammonium formate aqueous solution with pH of 3.0, and mobile phase B contained 90% acetonitrile in 10 mM ammonium formate with pH of 4.6. Non-compartmental pharmacokinetic analysis was performed on the plasma concentration-time data. The resulting data are shown in the first three columns of Table 4. In Table 4, CL refers to clearance, which characterizes the rate at which drug is removed from plasma. The lower the clearance of a drug is, the longer the elimination half-life is in the body. Vss refers to the steady state volume of distribution and indicates how well a drug is distributed into the tissues. The larger the Vss is, the longer the elimination half-life is in the body. MRT refers to mean residence time, which is a measure of the average time molecules exist in the body.

[5] = Pharmacokinetic analysis following oral administration to beagle dogs; assay type: in vivo; settings: 1 mg/kg
Method: as §1, §2, §3
For pharmacokinetic analysis of orally administered compounds, serial venous blood samples (approximately 0.3 mL each) were taken from each animal at time points of 0, 0.25, 0.50, 1.0, 2.0, 4.0, 6.0, 8.0, 12.0 and 24.0 hours after dosing. Blood samples were collected, prepared and analyzed in a similar way to the intravenous studies described above. Non-compartmental pharmacokinetic analysis was performed on the plasma concentration-time data. The resulting data are shown in the last three columns of Table 4. In Table 4, F (%) refers to oral bioavailability. Cmax refers to the peak plasma concentration of the compound after administration. AUC refers to area under the curve and is a measure of total plasma exposure of the indicated compound.

[6] = OCT2 mediated uptake of 14C-TEA (20 μM), MDCKII cells, read-out: IC50
[7] = plasma, beagle dogs, IV infusion over 30 min
[8] = 15 μM, relative to maximum fold induction by 10 or 20 μM rifampicin, DPX2 cells, 24 hours, read-out: % Emax at 15 μM
[9] = plasma, beagle dogs, IV infusion over 30 min, read-out: CL (converted)
[10] = plasma, beagle dogs, IV infusion over 30 min, read-out: MRT
[11] = beagle dogs, oral, aqueous suspension
[12] = male, dog, plasma, beagle dogs, oral, aqueous suspension, read-out: AUC (μM*h) aqueous suspension
[13] = male, dog, plasma, beagle dogs, oral, aqueous suspension, read-out: Cmax (μM) aqueous suspension

SMILES	CC50 at 5 days ([1]; CC50 nM in MT-4)	Emax at 24 h, 15 µM [2]	pIC50 [3, 6]	MRT ([4]; beagle, in vivo, iv)	clearance ([4]; beagle, in vivo, iv)	Vd [4, 7]	AUC ([5]; male, beagle, dog, in vivo, po)	Cmax ([5]; male, beagle, dog, in vivo, po)	F (%) aqueous suspension ([5]; male, beagle, dog, in vivo, po)	pIC50 [3]	CC50 at 5 days ([1]; MT-4 cells, mock-infected, CC50 nM in MT-4, MT-4 cells, 5 days incubation)	Emax at 24 h, 15 µM [2, 8]	clearance [4, 9]	MRT [4, 10]	F (%) aqueous suspension [5, 11]	AUC [5, 12]	Cmax [5, 13]	Vd ([4]; in vivo, beagle dogs, IV infusion over 30 min)
O=C(NCc1ccc(F)cc1F)c1cn2c(c(O)c1=O)C(=O)N1[C@H]3CC[C@H](C3)O[C@@H]1C2 [Compound 2, (2R,5S,13aR)-N-(2,4-difluorobenzyl)-8-hydroxy-7,9-dioxo-2,3,4,5,7,9,13,13a-octahydro-2,5-methanopyrido[1′,2′:4,5]pyrazino[2,1-b][1,3]oxazepine-10-carboxamide]	3110 nM	4.5%	6.62	6.5 h	0.5 mL/min/kg	0.2 L/kg	66.1 µM·h	7.8 µM	40.7%									
O=C(NCc1ccc(F)cc1F)c1cn2c(c(O)c1=O)C(=O)N1[C@@H]3CC[C@@H](C3)O[C@H]1C2 [Compound 3, (2S,5R,13aS)-N-(2,4-difluorobenzyl)-8-hydroxy-7,9-dioxo-2,3,4,5,7,9,13,13a-octahydro-2,5-methanopyrido[1′,2′:4,5]pyrazino[2,1-b][1,3]oxazepine-10-carboxamide]	38400 nM	7.5%	6.60	4.9 h	0.783 mL/min/kg	0.23 L/kg	9.2 µM·h	1.2 µM	18.7%									
O=C(NCc1c(F)cc(F)cc1F)c1cn2c(c(O)c1=O)C(=O)N1[C@H]3CC[C@H](C3)[C@@H]1C2 [Compound 41, (1R,4S,12aR)-7-hydroxy-6,8-dioxo-N-(2,4,6-trifluorobenzyl)-1,2,3,4,6,8,12,12a-octahydro-1,4-methanodipyrido[1,2-a:1′,2′-d]pyrazine-9-carboxamide]	15700 nM	11.5%		7.5 h	0.25 mL/min/kg	0.11 L/kg	16.3 µM·h	2.4 µM	10.7%	5.55								
O=C(NCc1c(F)cc(F)cc1F)c1cn2c(c(O)c1=O)C(=O)N1[C@H]3CC[C@H](C3)O[C@@H]1C2 [Compound 42, (2R,5S,13aR)-8-hydroxy-7,9-dioxo-N-(2,4,6-trifluorobenzyl)-2,3,4,5,7,9,13,13a-octahydro-2,5-methanopyrido[1′,2′:4,5]pyrazino[2,1-b][1,3]oxazepine-10-carboxamide]			6.31			0.15 L/kg					3540 nM	21%	0.333 mL/min/kg	7.1 h	28.0%	28.6 µM·h	4.5 µM	
O=C(NCc1ccc(F)cc1F)c1cn2c(c(O)c1=O)C(=O)N1[C@H]3CC[C@H](C3)[C@@H]1C2 [Compound 47, (1R,4S,12aR)-N-(2,4-difluorobenzyl)-7-hydroxy-6,8-dioxo-1,2,3,4,6,8,12,12a-octahydro-1,4-methanodipyrido[1,2-a:1′,2′-d]pyrazine-9-carboxamide]	11300 nM		5.21									11%	0.233 mL/min/kg	7.4 h	12.6%	20.4 µM·h	2.8 µM	0.1 L/kg
C[C@@H](NC(=O)c1cn2c(c(O)c1=O)C(=O)N1[C@H]3CC[C@H](C3)[C@@H]1C2)c1c(F)cc(F)cc1F [Compound 77, (1R,4S,12aR)-7-hydroxy-6,8-dioxo-N—((R)-1-(2,4,6-trifluorophenyl)ethyl)-1,2,3,4,6,8,12,12a-octahydro-1,4-methanodipyrido[1,2-a:1′,2′-d]pyrazine-9-carboxamide]	10100 nM	11%		2.2 h	5 mL/min/kg	0.64 L/kg				5.42								
O=C(NCc1c(F)cc(F)cc1F)c1cn2c(c(O)c1=O)C(=O)N1[C@H](C2)[C@H]2C[C@@H]1C(F)(F)C2 [Compound 83, (1S,4R,12aS)-3,3-difluoro-7-hydroxy-6,8-dioxo-N-(2,4,6-trifluorobenzyl)-1,2,3,4,6,8,12,12a-octahydro-1,4-methanodipyrido[1,2-a:1′,2′-d]pyrazine-9-carboxamide]	27500 nM	1%	5.00	2.4 h	2.68 mL/min/kg	0.38 L/kg												
O=C(NCc1c(F)cc(F)cc1F)c1cn2c(c(O)c1=O)C(=O)N1[C@@H](C2)[C@H]2C[C@@H]1C(F)(F)C2 [Compound 98, (1S,4R,12aR)-3,3-difluoro-7-hydroxy-6,8-dioxo-N-(2,4,6-trifluorobenzyl)-1,2,3,4,6,8,12,12a-octahydro-1,4-methanodipyrido[1,2-a:1′,2′-d]pyrazine-9-carboxamide]	17900 nM	0%	5.43	3.3 h	0.783 mL/min/kg	0.16 L/kg												
